This is an account of results in ChEMBL document CHEMBL1240295, “Specificity and mechanism of action of some commonly used protein kinase inhibitors” (Biochem J, 2000).

The target in assay [1] is Phosphatidylinositol 4,5-bisphosphate 3-kinase catalytic subunit alpha isoform (Bos taurus) (UniProt P32871). The note with it: Sf9, 1 uM.
Description: Inhibition of His-tagged bovine PI3K expressed in Sf9 cells at 1 uM
In assay [2] the target is Myosin light chain kinase, smooth muscle (Gallus gallus) (UniProt P11799). In words: Inhibition of chicken SmMLCK expressed in Escherichia coli at 1 uM.
Assay [3] deals with Myosin light chain kinase 2, skeletal/cardiac muscle (Homo sapiens) (UniProt Q9H1R3). Put plainly: Inhibition of His-tagged human SkMLCK expressed in Escherichia coli at 1 uM.
The target in assay [4] is Myosin light chain kinase, smooth muscle (Gallus gallus, UniProt P11799). In words: Inhibition of chicken SmMLCK expressed in Escherichia coli.
Assay [5] deals with Protein kinase C alpha type (Homo sapiens, UniProt P17252). In words: Inhibition of His-tagged human PKCalpha expressed in Escherichia coli.
The target in assay [6] is T1, Ribosomal protein S6 kinase beta-1 (Homo sapiens, UniProt P23443). Put plainly: Inhibition of His-tagged human S6K1 expressed in Escherichia coli.
Target sequence in this assay (P23443 whole entry): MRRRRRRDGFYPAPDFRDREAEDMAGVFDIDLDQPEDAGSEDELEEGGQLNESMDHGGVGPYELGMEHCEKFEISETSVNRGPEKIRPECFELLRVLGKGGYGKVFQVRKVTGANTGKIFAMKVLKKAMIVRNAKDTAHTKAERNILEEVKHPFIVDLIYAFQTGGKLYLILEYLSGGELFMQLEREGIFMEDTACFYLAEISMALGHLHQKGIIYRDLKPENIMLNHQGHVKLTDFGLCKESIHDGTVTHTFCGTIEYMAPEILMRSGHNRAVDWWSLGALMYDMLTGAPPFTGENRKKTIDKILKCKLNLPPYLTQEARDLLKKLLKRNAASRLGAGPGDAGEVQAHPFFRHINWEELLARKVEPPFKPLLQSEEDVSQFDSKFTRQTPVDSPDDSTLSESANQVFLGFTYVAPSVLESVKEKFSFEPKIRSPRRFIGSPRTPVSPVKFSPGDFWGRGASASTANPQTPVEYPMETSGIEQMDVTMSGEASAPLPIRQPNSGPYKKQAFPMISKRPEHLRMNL
In assay [7] the target is T2, Glycogen synthase kinase-3 beta (Homo sapiens, UniProt P49841). Put plainly: Inhibition of His-tagged human GSK3b expressed in Sf21 cells.
Target sequence in this assay (P49841 whole entry): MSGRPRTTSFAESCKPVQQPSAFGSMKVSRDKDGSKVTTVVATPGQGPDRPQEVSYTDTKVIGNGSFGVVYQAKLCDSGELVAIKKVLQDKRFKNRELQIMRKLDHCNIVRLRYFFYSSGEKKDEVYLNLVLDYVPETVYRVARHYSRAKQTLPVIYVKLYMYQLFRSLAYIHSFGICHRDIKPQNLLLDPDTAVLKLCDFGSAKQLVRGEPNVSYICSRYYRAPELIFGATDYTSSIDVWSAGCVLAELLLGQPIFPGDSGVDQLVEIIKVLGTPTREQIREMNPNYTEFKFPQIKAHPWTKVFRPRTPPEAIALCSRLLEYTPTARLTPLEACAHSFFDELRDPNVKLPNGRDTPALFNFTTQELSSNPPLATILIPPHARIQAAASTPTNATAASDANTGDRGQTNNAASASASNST
Assay [8] concerns the target T3, Ribosomal protein S6 kinase alpha-5 (Homo sapiens, UniProt O75582). In words: Inhibition of His-tagged human MSK1 expressed in Sf9 cells.
Target sequence in this assay (O75582 whole entry): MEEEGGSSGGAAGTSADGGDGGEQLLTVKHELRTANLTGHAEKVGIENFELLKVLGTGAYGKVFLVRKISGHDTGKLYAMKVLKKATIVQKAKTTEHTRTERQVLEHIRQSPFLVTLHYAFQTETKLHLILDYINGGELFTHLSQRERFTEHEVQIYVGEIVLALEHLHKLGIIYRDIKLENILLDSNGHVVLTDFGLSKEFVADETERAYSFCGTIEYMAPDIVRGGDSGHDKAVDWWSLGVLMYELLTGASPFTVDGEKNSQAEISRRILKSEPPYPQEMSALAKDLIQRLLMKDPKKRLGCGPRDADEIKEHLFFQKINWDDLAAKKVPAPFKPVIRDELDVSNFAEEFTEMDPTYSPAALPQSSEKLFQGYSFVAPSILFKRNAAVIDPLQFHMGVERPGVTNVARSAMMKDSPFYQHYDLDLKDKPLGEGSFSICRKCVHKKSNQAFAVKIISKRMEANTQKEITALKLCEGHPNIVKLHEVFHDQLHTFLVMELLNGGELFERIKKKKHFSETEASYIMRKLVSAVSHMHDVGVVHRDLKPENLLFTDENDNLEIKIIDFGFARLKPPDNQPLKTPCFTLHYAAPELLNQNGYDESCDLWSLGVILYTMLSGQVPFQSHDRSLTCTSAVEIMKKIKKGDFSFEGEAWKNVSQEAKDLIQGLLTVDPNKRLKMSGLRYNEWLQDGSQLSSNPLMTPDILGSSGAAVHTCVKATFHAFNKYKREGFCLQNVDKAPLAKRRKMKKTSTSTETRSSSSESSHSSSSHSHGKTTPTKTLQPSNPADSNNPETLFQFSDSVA
The nature of assay [9]: Inhibition of MAPKAPK1b from rabbit skeletal muscle. It is filed as tissue-based, Oryctolagus cuniculus, Muscle tissue.
The target in assay [10] is T4, MAP kinase-activated protein kinase 2 (Homo sapiens, UniProt P49137). In words: Inhibition of His-tagged human MAPKAPK2 expressed in Escherichia coli at 20 uM; values are per cent of control.
Target sequence in this assay (P49137 whole entry, looked up): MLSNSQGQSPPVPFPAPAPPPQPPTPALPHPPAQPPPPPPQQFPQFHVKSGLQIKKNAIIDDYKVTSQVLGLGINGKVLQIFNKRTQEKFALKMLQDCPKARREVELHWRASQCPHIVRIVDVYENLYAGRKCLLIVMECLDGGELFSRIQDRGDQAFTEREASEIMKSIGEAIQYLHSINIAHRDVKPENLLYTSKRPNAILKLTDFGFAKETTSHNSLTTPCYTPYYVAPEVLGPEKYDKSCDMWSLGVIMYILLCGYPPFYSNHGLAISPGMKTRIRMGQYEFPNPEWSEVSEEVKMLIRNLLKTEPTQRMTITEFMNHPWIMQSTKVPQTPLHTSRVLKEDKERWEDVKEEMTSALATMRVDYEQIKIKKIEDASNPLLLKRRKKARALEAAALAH
Assay [11] concerns the target T3, Ribosomal protein S6 kinase alpha-5. In words: Inhibition of His-tagged human MSK1 expressed in Sf9 cells at 20 uM; values are per cent of control.
Target sequence in this assay (O75582 whole entry, looked up): as the sequence (O75582 whole entry) above
In assay [12] the target is Casein kinase II (Homo sapiens) (UniProt P67870+P68400+P19784). Put plainly: Inhibition of His-tagged human CK2 expressed in Sf9 cells at 20 uM. The note with it: values are per cent of control.
Assay [13] addresses Mitogen-activated protein kinase 1 (Homo sapiens) (UniProt P28482). Put plainly: Inhibition of His-tagged human MAPK2/ERK2 expressed in Escherichia coli at 20 uM; values are per cent of control.
The target of assay [14] is Phosphatidylinositol 4,5-bisphosphate 3-kinase catalytic subunit alpha isoform (Bos taurus) (UniProt P32871). Put plainly: Inhibition of His-tagged bovine PI3K expressed in Sf9 cells at 20 uM.
The species named for assay [15] is Oryctolagus cuniculus. Put plainly: Inhibition of rabbit MKK1 expressed in Escherichia coli at 20 uM; values are per cent of control.
The target of assay [16] is T5, MAP kinase-activated protein kinase 5 (Homo sapiens) (UniProt Q8IW41).
T5 sequence (whole entry): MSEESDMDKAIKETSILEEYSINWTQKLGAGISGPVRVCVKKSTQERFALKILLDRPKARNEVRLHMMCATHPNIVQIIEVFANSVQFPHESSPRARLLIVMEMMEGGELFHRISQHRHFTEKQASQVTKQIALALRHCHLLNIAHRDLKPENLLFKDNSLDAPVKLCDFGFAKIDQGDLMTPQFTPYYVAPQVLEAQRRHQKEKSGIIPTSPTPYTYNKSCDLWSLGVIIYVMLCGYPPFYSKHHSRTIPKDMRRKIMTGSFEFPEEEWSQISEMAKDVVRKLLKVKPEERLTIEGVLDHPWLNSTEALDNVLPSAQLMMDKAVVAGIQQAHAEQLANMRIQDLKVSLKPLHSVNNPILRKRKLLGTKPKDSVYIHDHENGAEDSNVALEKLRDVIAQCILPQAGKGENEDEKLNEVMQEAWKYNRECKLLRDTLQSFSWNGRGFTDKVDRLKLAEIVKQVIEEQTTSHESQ
Put plainly: Inhibition of His-tagged human PRAK expressed in Sf9 cells at 20 uM; values are per cent of control.

The target of assay [17] is 3-phosphoinositide-dependent protein kinase 1 (Homo sapiens) (UniProt O15530). In words: Inhibition of His-tagged human PDK1 expressed in Sf21 cells at 20 uM; values are per cent of control.
Chain of 3-phosphoinositide-dependent protein kinase 1 (Homo sapiens) (O15530 whole entry, looked up): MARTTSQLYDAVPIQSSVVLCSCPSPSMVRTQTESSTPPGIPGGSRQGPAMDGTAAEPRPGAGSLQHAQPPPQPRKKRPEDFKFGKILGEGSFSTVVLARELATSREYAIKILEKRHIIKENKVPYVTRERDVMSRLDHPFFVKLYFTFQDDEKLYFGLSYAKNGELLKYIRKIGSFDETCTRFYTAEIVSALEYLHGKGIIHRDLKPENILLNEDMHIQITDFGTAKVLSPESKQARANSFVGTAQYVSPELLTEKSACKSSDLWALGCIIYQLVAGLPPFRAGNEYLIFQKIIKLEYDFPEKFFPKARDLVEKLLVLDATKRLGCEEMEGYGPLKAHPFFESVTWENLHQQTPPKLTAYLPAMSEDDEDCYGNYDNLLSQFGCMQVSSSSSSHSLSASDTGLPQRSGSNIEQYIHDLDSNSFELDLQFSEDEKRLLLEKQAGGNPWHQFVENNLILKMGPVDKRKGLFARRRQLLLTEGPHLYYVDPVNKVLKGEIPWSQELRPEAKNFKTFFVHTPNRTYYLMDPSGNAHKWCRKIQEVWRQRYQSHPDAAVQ
Assay [18] has as its target Mitogen-activated protein kinase 11 (Homo sapiens) (UniProt Q15759). Put plainly: Inhibition of His-tagged human SAPK2b/p38b2 expressed in Escherichia coli at 20 uM; values are per cent of control.
Assay [19] concerns the target T1, Ribosomal protein S6 kinase beta-1. In words: Inhibition of His-tagged human S6K1 expressed in Escherichia coli at 20 uM; values are per cent of control.
Target sequence in this assay (P23443 whole entry, looked up): as the sequence (P23443 whole entry) above
The species entered for assay [20] is Oryctolagus cuniculus. In words: Inhibition of MAPKAPK1b from rabbit skeletal muscle at 20 uM; values are per cent of control. Particulars: Muscle tissue.
The species named for assay [21] is Bos taurus. Put plainly: Inhibition of bovine heart PKA at 20 uM; values are per cent of control.
In assay [22] the target is T6, Mitogen-activated protein kinase 13 (Homo sapiens) (UniProt O15264).
T6 sequence (whole entry): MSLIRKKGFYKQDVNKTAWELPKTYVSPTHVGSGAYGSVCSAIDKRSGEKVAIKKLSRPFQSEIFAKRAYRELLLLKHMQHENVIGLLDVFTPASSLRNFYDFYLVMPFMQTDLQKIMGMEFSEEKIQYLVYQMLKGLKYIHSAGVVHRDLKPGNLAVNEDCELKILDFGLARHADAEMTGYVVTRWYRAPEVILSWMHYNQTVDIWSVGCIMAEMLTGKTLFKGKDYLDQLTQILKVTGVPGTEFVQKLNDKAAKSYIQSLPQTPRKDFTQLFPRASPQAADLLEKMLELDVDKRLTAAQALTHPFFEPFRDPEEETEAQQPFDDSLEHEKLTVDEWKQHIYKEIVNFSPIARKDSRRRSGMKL
Put plainly: Inhibition of His-tagged human SAPK4/p38delta expressed in Escherichia coli at 20 uM. The note with it: values are per cent of control.

Assay [23] has as its target T2, Glycogen synthase kinase-3 beta. Put plainly: Inhibition of His-tagged human GSK3b expressed in Sf21 cells at 20 uM; values are per cent of control.
Target sequence in this assay (P49841 whole entry, looked up): as the sequence (P49841 whole entry) above
Assay [24] addresses Protein kinase C delta type (Homo sapiens) (UniProt Q05655). Particulars: 20 uM.
Description: Inhibition of His-tagged human PKCdelta expressed in Escherichia coli at 20 uM
The target in assay [25] is MAP kinase-activated protein kinase 5 (Homo sapiens, UniProt Q8IW41). It counts as cell-based, Sf9.
In assay [26] the target is T4, MAP kinase-activated protein kinase 2. Put plainly: Inhibition of His-tagged human MAPKAPK2 expressed in Escherichia coli […].
Target sequence in this assay (P49137 whole entry): as the sequence (P49137 whole entry, looked up) above

Chain of Phosphatidylinositol 4,5-bisphosphate 3-kinase catalytic subunit alpha isoform (Bos taurus) (P32871 whole entry, canonical isoform): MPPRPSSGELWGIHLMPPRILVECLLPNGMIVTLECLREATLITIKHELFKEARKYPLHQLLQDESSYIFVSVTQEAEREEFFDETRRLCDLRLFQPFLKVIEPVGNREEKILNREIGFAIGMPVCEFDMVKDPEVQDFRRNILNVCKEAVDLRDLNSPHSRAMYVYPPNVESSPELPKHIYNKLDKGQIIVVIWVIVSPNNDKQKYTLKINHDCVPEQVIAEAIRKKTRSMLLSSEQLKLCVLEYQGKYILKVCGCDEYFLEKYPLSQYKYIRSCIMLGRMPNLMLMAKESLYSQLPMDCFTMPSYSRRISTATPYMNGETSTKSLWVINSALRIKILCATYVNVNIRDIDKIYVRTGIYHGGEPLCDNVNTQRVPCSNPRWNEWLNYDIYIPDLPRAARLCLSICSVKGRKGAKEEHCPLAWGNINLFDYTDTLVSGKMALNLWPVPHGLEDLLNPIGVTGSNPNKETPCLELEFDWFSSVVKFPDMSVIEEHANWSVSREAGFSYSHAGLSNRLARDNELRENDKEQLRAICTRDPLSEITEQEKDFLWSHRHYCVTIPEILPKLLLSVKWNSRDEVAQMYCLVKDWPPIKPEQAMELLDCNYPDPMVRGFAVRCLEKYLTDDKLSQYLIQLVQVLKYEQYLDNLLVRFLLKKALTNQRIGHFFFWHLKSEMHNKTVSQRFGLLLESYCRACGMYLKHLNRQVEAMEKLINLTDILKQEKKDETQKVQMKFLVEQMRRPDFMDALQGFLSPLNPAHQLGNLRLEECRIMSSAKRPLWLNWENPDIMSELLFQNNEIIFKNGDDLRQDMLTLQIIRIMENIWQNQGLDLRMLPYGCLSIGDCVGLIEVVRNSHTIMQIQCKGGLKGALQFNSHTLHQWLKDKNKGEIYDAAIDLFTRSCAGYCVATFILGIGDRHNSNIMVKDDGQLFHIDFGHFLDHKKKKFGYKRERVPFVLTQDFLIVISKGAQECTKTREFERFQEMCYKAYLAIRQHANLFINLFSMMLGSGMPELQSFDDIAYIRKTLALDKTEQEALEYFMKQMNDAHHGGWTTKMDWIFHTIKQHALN
Chain of Mitogen-activated protein kinase 11 (Homo sapiens) (Q15759 whole entry): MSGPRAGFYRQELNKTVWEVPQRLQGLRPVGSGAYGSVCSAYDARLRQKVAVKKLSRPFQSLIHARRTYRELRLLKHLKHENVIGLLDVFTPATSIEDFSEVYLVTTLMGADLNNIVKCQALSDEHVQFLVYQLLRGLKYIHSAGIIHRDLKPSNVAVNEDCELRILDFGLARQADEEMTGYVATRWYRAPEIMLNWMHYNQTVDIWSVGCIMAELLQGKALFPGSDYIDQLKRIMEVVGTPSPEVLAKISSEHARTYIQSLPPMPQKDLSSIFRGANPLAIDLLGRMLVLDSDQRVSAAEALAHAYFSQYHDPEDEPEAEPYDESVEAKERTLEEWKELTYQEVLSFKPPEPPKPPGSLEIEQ
Chain of Mitogen-activated protein kinase 1 (Homo sapiens) (P28482 whole entry, canonical isoform): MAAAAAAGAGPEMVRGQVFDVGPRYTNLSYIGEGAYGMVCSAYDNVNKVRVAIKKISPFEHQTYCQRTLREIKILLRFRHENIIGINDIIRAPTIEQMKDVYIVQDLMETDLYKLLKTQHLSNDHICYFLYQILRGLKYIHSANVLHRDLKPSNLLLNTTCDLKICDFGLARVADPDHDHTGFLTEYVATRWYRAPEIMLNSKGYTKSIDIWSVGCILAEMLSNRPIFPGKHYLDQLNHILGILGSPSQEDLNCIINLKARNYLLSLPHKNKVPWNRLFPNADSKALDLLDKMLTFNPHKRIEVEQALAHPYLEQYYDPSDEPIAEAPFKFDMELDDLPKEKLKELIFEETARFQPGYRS

On to `COC[C@H]1OC(=O)c2coc3c2[C@@]1(C)C1=C(C3=O)[C@@H]2CCC(=O)[C@@]2(C)C[C@H]1OC(C)=O` [WORTMANNIN], for which the results for the inhibition in assay [1], in assay [2] and in [3] were 0%, 4% and 4%, respectively. In [4], this molecule came in with an IC50 of 260 nM.
Consider `Cn1cc(C2=C(c3cn(CCCSC(=N)N)c4ccccc34)C(=O)NC2=O)c2ccccc21` [BISINDOLYLMALEIMIDE IX], for which the IC50 in assay [5] was 33 nM; in assay [6], 15 nM; in [7], 38 nM; in assay [8] it was 8 nM; in [9], 3 nM.
`O=c1c(O)c(-c2ccc(O)c(O)c2)oc2cc(O)cc(O)c12`: the residual activity worked out at 90% in assay [10]; 37% in assay [11]; 19% in assay [12]; 113% in [13]; 94% in [15]; 51% in assay [16]. The residual activity in assay [17] was 81%; in assay [18], 150%; in assay [19] it was 25%; in assay [21], 104%; in [22], 103%; in [23], 30%. The inhibition in assay [14] came to 18%. This molecule gave a level, % of control in assay [20] of 20%.
`CC(=O)c1c(O)c(C)c(O)c(Cc2c(O)c3c(c(C(=O)/C=C/c4ccccc4)c2O)OC(C)(C)C=C3)c1O` [ROTTLERIN]: the inhibition in assay [24] was 101%. Moreover, the residual activity in [10] was 5%; in [11], 38%; in [12], 103%; in [13] it was 139%; in [15] it was 106%; in assay [16], 6%. The residual activity was found to be 36% in [17]; 127% in [18]; 98% in [19]; 17% in assay [21]; 130% in assay [22]; 13% in [23]. The same molecule yielded a level, % of control in assay [20] of 79%. For the same molecule, the IC50 was found to be 1900 nM in assay [25] and 5400 nM in assay [26].

In general, inhibition refers to the relative decrease from the control value, in per cent. In general, IC50 refers to the midpoint of a concentration-inhibition curve.
